Results from patent publication US11180479B2 (HAPLOGEN GmbH, priority 2017, dated 2021).

Legend:
PLA2G16 = target: T1, PLA2G16 (Homo sapiens, UniProt P53816); experiment: Enzyme activity assay for PLA2G16 (Red/Green BODIPY PC-A2 fluorescence); format: biochemical; settings: His-tagged PLA2G16, 4 min pre-incubation, compound 2 nM to 50 μM; first symbol in parentheses
T1 construct: Hexa-His (N); made in house; host or cells: E. coli BL21(DE3)
T1 sequence (P53816 1-162): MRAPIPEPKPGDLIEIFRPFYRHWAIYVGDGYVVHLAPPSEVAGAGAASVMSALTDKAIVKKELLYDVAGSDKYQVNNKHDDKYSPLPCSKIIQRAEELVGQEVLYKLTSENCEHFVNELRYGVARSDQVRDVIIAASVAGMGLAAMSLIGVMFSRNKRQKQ
Excerpt: Purification and Enzyme Activity Assay for PLA2G16
A cDNA for PLA2G16 (NM_007069) was custom-synthesized by Genscript (Piscataway, USA) and inserted into a pET-based bacterial expression vector [Moffatt, B. A. and Studier, F. W. (1986) J. Mol. Biol. 189, 113-130; Rosenberg, A. H., Lade, B. N., Chui, D., Lin, S., Dunn, J. J., and Studier, F. W. (1987) Gene 56, 125-135], enabling the expression of N-terminally Hexa-His-tagged PLA2G16. E. coli BL21(DE3) (Agilent) were transformed with pET-His-PLA2G16 according to the manufacturer's instructions and plated on Carbenicillin-containing agar plates (final concentration: 100 μg/mL). A single clone was inoculated in 100 mL LB medium supplemented with 100 μg/mL Carbenicillin and the inoculated culture was grown at 37° C. overnight in a rotary shaker. On the next day, the bacterial culture was diluted in LB medium supplemented with 100 μg/mL Carbenicillin (30 mL overnight culture in 800 mL total culture volume). Bacteria were grown at 37° C. until the OD600 reached 0.6. Gene expression was induced by addition of 1 mM isopropyl-β-D-thiogalactopyranosid (IPTG) for 2 h at 18° C. Subsequently, bacteria were harvested by centrifugation (15 min; 10,000×g; 4° C.) and frozen at −80° C. The bacterial pellet was resuspended in Buffer A (50 mM Tris/HCl pH 7.5, 500 mM NaCl, 5% glycerol, 5 mM β-Mercaptoethanol and 1 mM PMSF) and lysed by addition of 1 mg/mL lysozyme (Sigma Aldrich) and 100 μg/mL DNasel-(Roche). The sample was incubated at 30° C. for 30 min to allow lysis to occur. Then, the lysate was cleared by centrifugation (15,000×g, 15 min, 4° C.) and incubated with 1.5 mL Ni-NTA agarose suspension (Qiagen) for 60 min at 4° C. The Ni-NTA agarose was washed with 10 mL Buffer A. Bound protein was eluted by applying a manual gradient of Buffer A supplemented with increasing concentrations of imidazole (Sigma Aldrich; 25/50/75/100/250 mM). Purified fractions were analyzed by SDS-PAGE followed by Coomassie staining to assess the purity.
Activity of the protein was assessed as follows:
Red/Green BODIPY® PC-A2 (Invitrogen, 1 mM in DMSO) was mixed with equal volumes of 1,2-Dioleoyl-sn-glycero-3-phosphocholine (DOPC; Sigma Aldrich, 10 mM in Ethanol) and 1,2-Dioleoyl-sn-glycero-3-phospho-rac-(1-glycerol) (DOPG; Sigma Aldrich, 10 mM in Ethanol) and 0.5 volumes of Cholesterol (CHOL; Sigma Aldrich, 10 mM in Ethanol) and vortexed for 5 s. The mixture (Red/Green BODIPY® PC-A2/DOPC/DOPG/CHOL) was diluted 1:91.4 in activity assay buffer (50 mM Tris/HCl pH 8.5, 100 mM NaCl) using a small-orifice pipette tip under constant vortexing. In the following, this preparation will be referred to as the “substrate solution”.
In order to evaluate their inhibitory potential, compounds were dissolved at 10 mM concentration in DMSO and directly spotted into assay plates (Corning, Cat. No. 3576) using acoustic liquid transfer (Labcyte Echo 525). Each compound was spotted at increasing concentrations, ranging from 2 nM to 50 μM (concentration in the final assay volume). 50 μl of PLA2G16 enzyme solution (diluted in activity buffer, supplemented with 5 mM L-Glutathione; Sigma Aldrich) was pre-incubated with compounds for 4 min., followed by addition of 50 μl of substrate solution. Fluorescence was recorded immediately after substrate addition for a total time of 10 min. using a SpectraMax M5 multimode reader (Excitation wavelength: 480 nm, emission wavelength: 530 nm). The relative increase of fluorescence over time is referred to as the enzyme activity. Half-maximal inhibitory concentrations (IC50) were derived by non-linear regression analysis using the drc package in R (R Development. Core Team, 2005).

[1] = tested on: picornaviruses (CVB1, HRV-A2, HRV-A23, EV-68); experiment: Anti-picornavirus cytopathic effect (CPE) reduction assay on HeLa H1 cells; format: cell-based; settings: 48 h, category from averaging EC50 values of four picornaviruses (CVB1, HRV-A2, HRV-A23, EV68), second symbol in parentheses
Method: Anti-Picornavirus Assay in Mammalian Cell Culture
The antiviral activity of selected compounds was tested using a cytopathic effect (CPE) reduction assay on HeLa H1 cells (ATCC CRL-1958). Briefly, cells were seeded in 96-well dishes (2×10^4 cells/well) in DMEM medium (Life technologies) supplemented with 10% FBS and PenStrep solution (100 U/mL Penicillin and 100 μg/mL streptomycin) and incubated at 37° C., 5% CO2 overnight. The next day, cells were pre-treated with serial dilutions of the compound in DMEM medium supplemented with 2% FBS and PenStrep for 2 h at 37° C., 5% CO2. Next, cells were infected with virus (CVB1, HRV-A2, HRV-A23, EV-68) at an multiplicity of infection (MOI) which results in a complete virus-induced CPE within 2 days in control wells (infected and vehicle-treated). After 48 h, supernatants were aspirated and 50 μl/well of CellTiterBlue reagent (Promega) diluted 1:5 in DMEM+2% FBS, was added to the cells. Plates were returned to the incubator and allowed to develop for 1.5 h. After that, plates were equilibrated to RT and subsequently, fluorescence was recorded (Excitation wavelength: 560 nm; emission wavelength: 590 nm) using a SpectraMax M5 multimode plate reader. Viability of cells was calculated according to the formula: V=(RFUCpd−RFUVeh/(RFUM−RFUVeh), where RFUCpd refers to infected and compound-treated cells, RFUVeh to infected and vehicle-treated cells and RFUM to uninfected and vehicle treated cells. Half-maximal effective concentrations (EC50) were calculated by non-linear regression analysis using the drc package in R (R Development. Core Team, 2005). EC50 categories as presented in Table 2 were calculated by averaging the EC50 values from four picornaviruses (CVB1, HRV-A2, HRV-A23, EV68).

SMILES | IC50 (PLA2G16) [nM] | EC50 [1] [nM]
Cc1cc(CN2C[C@H](C(=O)C(=O)NC(C)C)[C@@H](c3ccccc3)C2=O)no1 (racemic) [FP-101, Rac-2-[(3R,4S)-1-[(5-methyl-1,2-oxazol-3-yl)methyl]-5-oxo-4-phenylpyrrolidin-3-yl]-2-oxo-N-(propan-2-yl)acetamide] | < 1000 | 1000 to 10000
O=C(NOC1CCCCC1)C(=O)[C@H]1CNC(=O)[C@@H]1Cc1ccccc1 (racemic) [FP-9, Rac-2-[(3R,4R)-4-benzyl-5-oxopyrrolidin-3-yl]-N-(cyclohexyloxy)-2-oxoacetamide] | < 1000 | 1000 to 10000
O=C(NC1CC1)C(=O)[C@H]1CN(c2cnccn2)C(=O)[C@@H]1Cc1ccccc1 (single isomer, unassigned) [FP-93] | < 1000 | < 1000
Cn1ncnc1CN1C[C@H](C(=O)C(=O)NC2CC2)[C@@H](Cc2ccccc2)C1=O (single isomer, unassigned) [FP-98] | < 1000 | 1000 to 10000
CCNC(=O)C(=O)[C@H]1CN(c2cncnc2)C(=O)[C@@H]1Cc1ccccc1 (racemic) [FP-55, Rac-2-[(3R,4R)-4-benzyl-5-oxo-1-(pyrimidin-5-yl)pyrrolidin-3-yl]-N-ethyl-2-oxo-acetamide] | < 1000 | < 1000
O=C(NCC1CC1)C(=O)[C@@H]1CNC(=O)[C@H]1Cc1ccccc1 (single isomer, unassigned) [FP-82] | < 1000 | 1000 to 10000
O=C(NC1CC1)C(=O)[C@H]1CN(c2cc(Cl)cc(=O)[nH]2)C(=O)[C@@H]1Cc1ccccc1 (racemic) [FP-71, Rac-2-[(3R,4R)-4-benzyl-1-(4-chloro-6-oxo-1,6-dihydropyridin-2-yl)-5-oxopyrrolidin-3-yl]-N-cyclopropyl-2-oxoacetamide] | < 1000 | < 1000
CC(C)CNC(=O)C(=O)[C@H]1CN(CC(=O)N(C)C)C(=O)[C@@H]1Cc1ccccc1 (single isomer, unassigned) [FP-92] | < 1000 | 1000 to 10000
O=C(NC1CC(F)(F)C1)C(=O)[C@H]1CNC(=O)[C@@H]1c1ccccc1 (racemic) [FP-16, Rac-N-(3,3-difluorocyclobutyl)-2-oxo-2-[(3R,4S)-5-oxo-4-phenylpyrrolidin-3-yl]acetamide] | < 1000 | 1000 to 10000
CC(C)NC(=O)C(=O)[C@H]1CNC(=O)[C@@H]1Cc1ccccc1 (racemic) [FP-5, Rac-2-[(3R,4R)-4-benzyl-5-oxopyrrolidin-3-yl]-2-oxo-N-(propan-2-yl)acetamide] | < 1000 | < 1000
O=C(NC1CC1)C(=O)[C@H]1CN(CC(F)F)C(=O)[C@@H]1Cc1ccccc1 (racemic) [FP-49, Rac-2-[(3R,4R)-4-benzyl-1-(2,2-difluoroethyl)-5-oxopyrrolidin-3-yl]-N-cyclopropyl-2-oxoacetamide] | < 1000 | < 1000
NC(=O)c1ccc(CN2C[C@H](C(=O)C(=O)NC3CC3)[C@@H](Cc3ccccc3)C2=O)cc1 (racemic) | < 1000 | –

The next lines start with the values.

IC50 (PLA2G16) [nM] | EC50 [1] [nM] | SMILES
< 1000 | 1000 to 10000 | O=C(NC1CC1)C(=O)[C@H]1CN(CCN2CCCC2=O)C(=O)[C@@H]1Cc1ccccc1 (racemic) [FP-48, Rac-2-[(3R,4R)-4-benzyl-5-oxo-1-[2-(2-oxopyrrolidin-1-yl)ethyl]pyrrolidin-3-yl]-N-cyclopropyl-2-oxoacetamide]
< 1000 | 1000 to 10000 | CC1(NC(=O)C(=O)[C@H]2CNC(=O)[C@@H]2c2ccccc2)CC1 (racemic) [FP-20, Rac-N-(1-methylcyclopropyl)-2-oxo-2-[(3R,4S)-5-oxo-4-phenylpyrrolidin-3-yl]acetamide]
< 1000 | < 1000 | Cc1cc(CN2C[C@H](C(=O)C(=O)NC3CC3)[C@@H](Cc3ccccc3)C2=O)no1 (racemic) [FP-41, Rac-2-[(3R,4R)-4-benzyl-1-[(5-methyl-1,2-oxazol-3-yl)methyl]-5-oxopyrrolidin-3-yl]-N-cyclopropyl-2-oxoacetamide]
< 1000 | < 1000 | O=C(NCC1CC1)C(=O)[C@H]1CNC(=O)[C@@H]1Cc1ccccc1 (racemic) [FP-1, Rac-2-[(3R,4R)-4-benzyl-5-oxopyrrolidin-3-yl]-N-(cyclopropylmethyl)-2-oxoacetamide]
< 1000 | < 1000 | O=C(NC1CC1)C(=O)[C@H]1CN(c2cncnc2)C(=O)[C@@H]1Cc1ccccc1 (racemic) [FP-54, Rac-2-[(3R,4R)-4-benzyl-5-oxo-1-(pyrimidin-5-yl)pyrrolidin-3-yl]-N-cyclopropyl-2-oxoacetamide]
< 1000 | 1000 to 10000 | CN1C[C@H](C(=O)C(=O)NC2CC2)[C@@H](C2CCCCC2)C1=O (racemic) [FP-38, Rac-2-[(3R,4R)-4-cyclohexyl-1-methyl-5-oxopyrrolidin-3-yl]-N-cyclopropyl-2-oxoacetamide]
< 1000 | 1000 to 10000 | Cn1ncnc1CN1C[C@H](C(=O)C(=O)NC2CC2)[C@@H](Cc2ccccc2)C1=O (racemic) [FP-42, Rac-2-[(3R,4R)-4-benzyl-1-[(1-methyl-1H-1,2,4-triazol-5-yl)methyl]-5-oxopyrrolidin-3-yl]-N-cyclopropyl-2-oxoacetamide]
< 1000 | < 1000 | CC(F)(F)CNC(=O)C(=O)[C@H]1CNC(=O)[C@@H]1c1ccccc1 (single isomer, unassigned) [FP-88]
< 1000 | < 1000 | CC(C)CNC(=O)C(=O)[C@H]1CNC(=O)[C@@H]1c1ccccc1 (racemic) [FP-13, Rac-N-(2-methylpropyl)-2-oxo-2-[(3R,4S)-5-oxo-4-phenylpyrrolidin-3-yl]acetamide]
< 1000 | 1000 to 10000 | O=C(NC1CC1)C(=O)C1CC(=O)N(Cc2ccccc2)C1 (stereo not shown) [FP-104, 2-(1-Benzyl-5-oxopyrrolidin-3-yl)-N-cyclopropyl-2-oxoacetamide]
